# From patent US20050175599A1, “Process for producing substance” (Kyowa Hakko Kogyo Co., Ltd., priority 2001, published 2005)
# System: transformant cell line 503LCA500D (derived from CHO/DG44) producing chimeric anti-CCR4 antibody
# Assay: Fed-batch culture of antibody-producing cells with Q10-containing feed medium (Example 3)
# Format: cell-based, Chinese hamster
# Conditions: for cumulative number of cells on the completion of culturing: Q10-free culture 3.94×10^7; for relative specific antibody production rate: Q10-free culture = 100%
# Description: Lens culinaris agglutinin (hereinafter abbreviated as LCA) resistant cell line CHO-LCA, which is derived from Chinese hamster ovary cell line CHO/DG44, was prepared by the method described in WO 02/31140, and chimeric anti-CCR4 antibody expression vector pCANTEX 2160 (WO 01/64754) was transfected into this cell line. Then, amethotrexate (MTX)-resistant cell was selected for gene amplification to obtain transformant cell line 503LCA500D (FERM BP-8239) producing chimeric anti-CCR4 antibody. The following fed-batch culture was performed using this cell line 503LCA500D. 503LCA500D was deposited as FERM BP-8239 in International Patent Organism Depositary, National Institute of Advanced Industrial Science and Technology (AIST Tsukuba Central 6, 1-1-1 Higashi, Tsukuba, Ibaraki, Japan) as of Nov. 20, 2002.
# The cells were inoculated in a 250-mL conical flask containing 50 mL of a serum-free medium. (EX-CELL 302 medium, manufactured by JRH Biosciences) to a cell density of 3×10^5 cells/mL, followed by spinner culture at 100 rpm at 37° C.
# In Q10-added cultures, 0.5 mL or 1 mL of a health drink SANOMIT (manufactured by MSE Pharmazeutica GmbH) comprising Q10, water, glycerin, ethanol and lecithin was added to 20 mL of an animal-protein-material-free feed medium comprising amino acids (0.22 g/L L-alanine, 0.74 g/L L-arginine monohydrochloride, 0.22 g/LL-asparagine (anhydrous), 0.26 g/L L-aspartic acid, 0.8 g/L L-cystine dihydrochloride, 0.66 g/L L-glutamic acid, 7.34 g/L L-glutamine, 0.26 g/L glycine, 0.37 g/L L-histidine monohydrochloride dihydrate, 0.92 g/L L-isoleucine, 0.92 g/L L-leucine, 1.29 g/L L-lysine monohydrochloride, 0.26 g/L L-methionine, 0.58 g/L L-phenylalanine, 0.35 g/L L-proline, 0.37 g/L L-serine, 0.84 g/L L-threonine, 0.14 g/L L-tryptophan, 0.92 g/L L-tyrosine disodium dihydrate, and 0.83 g/LL-valine), vitamins (0.11 mg/L d-biotin, 0.035 g/L calcium D-pantothenate, 0.035 g/L choline chloride, 0.035 g/L folic acid, 0.063 g/L myo-inositol, 0.035 g/L niacin amide, 0.035 g/L pyridoxal hydrochloride, 0.0035 g/L riboflavin, 0.035 g/L thiamine hydrochloride, and 0.00011 mg/L cyanocobalamine), 0.0251 g/L ethanolamine, 0.314 g/L insulin, 8 g/L soybean hydrolysate HY-SOY (manufactured by Quest International), 0.05 g/L ethylenediaminetetraacetic acid ferric sodium salt (manufactured by Sigma-Aldrich Co.), and 2 mL cholesterol lipid concentrate (1,000×aqueous solution, manufactured by Invitrogen Corp.). The concentrations of Q10 in the feed media after addition of SANOMIT were 1,563 μmol/L and 3,125 μmol/L respectively. […]
compound,measurement,setting,value
COC1=C(OC)C(=O)C(C/C=C(\C)CC/C=C(\C)CC/C=C(\C)CC/C=C(\C)CC/C=C(\C)CC/C=C(\C)CC/C=C(\C)CC/C=C(\C)CC/C=C(\C)CCC=C(C)C)=C(C)C1=O [Q10],cumulative number of cells on the completion of culturing,"Q10-added culture 1, 121 to 393 μmol/L Q10 in the medium (SANOMIT in feed), fed-batch 13 days",3.64×10^7 cells/mL×days
same,relative specific antibody production rate,"Q10-added culture 1, 121 to 393 μmol/L Q10 in the medium, fed-batch 13 days",128.8%
same,cumulative number of cells on the completion of culturing,"Q10-added culture 2, 242 to 786 μmol/L Q10 in the medium (SANOMIT in feed), fed-batch 15 days",2.00×10^7 cells/mL×days
same,relative specific antibody production rate,"Q10-added culture 2, 242 to 786 μmol/L Q10 in the medium, fed-batch 15 days",149.1%
